Experiments:
Assay in all cases: Cysteine liganding, probe competition
Assay type in all cases: binding
[1] = target: T1, LGMN Legumain (Homo sapiens, UniProt Q99538); conditions: for 100 Max / 100 ave / 500 Max / 500 ave: uniprot Q99538
T1 construct: Cells were resuspended in cold PBS on ice and sonicated with a probe sonicator to achieve lysis; endogenous in cells
T1 sequence (Q99538 18-323): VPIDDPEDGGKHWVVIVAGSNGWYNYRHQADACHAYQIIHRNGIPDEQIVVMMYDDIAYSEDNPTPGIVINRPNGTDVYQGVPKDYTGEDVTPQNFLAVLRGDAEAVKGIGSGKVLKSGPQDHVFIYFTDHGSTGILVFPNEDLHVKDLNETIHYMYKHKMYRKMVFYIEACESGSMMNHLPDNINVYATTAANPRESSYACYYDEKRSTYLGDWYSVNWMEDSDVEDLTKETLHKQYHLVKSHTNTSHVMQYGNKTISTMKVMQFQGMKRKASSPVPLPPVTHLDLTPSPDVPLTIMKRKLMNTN
How it was run: (§1)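 Read-out is loss of desthiobiotin iodoacetamide labelling at cysteines, measured on streptavidin-enriched tryptic peptides. Compound preincubation ran 1 hr at 25° C in PBS lysate holding 5 mg/ml proteome before the probe was added.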

[2] = target: T2, ATG16L1 Autophagy-related protein 16-1 (Homo sapiens, UniProt Q676U5)
T2 construct: 200 μL of lysate containing 5 mg/ml proteome was treated with 2 μL of 100× compound stock; endogenous in cells
How it was run: as §1

[3] = target: T3, GOLGA2 Golgin subfamily A member 2 (Homo sapiens, UniProt Q08379)
T3 construct: Cells were resuspended in cold PBS on ice and sonicated with a probe sonicator to achieve lysis; endogenous in cells
T3 sequence (Q08379 1-1002): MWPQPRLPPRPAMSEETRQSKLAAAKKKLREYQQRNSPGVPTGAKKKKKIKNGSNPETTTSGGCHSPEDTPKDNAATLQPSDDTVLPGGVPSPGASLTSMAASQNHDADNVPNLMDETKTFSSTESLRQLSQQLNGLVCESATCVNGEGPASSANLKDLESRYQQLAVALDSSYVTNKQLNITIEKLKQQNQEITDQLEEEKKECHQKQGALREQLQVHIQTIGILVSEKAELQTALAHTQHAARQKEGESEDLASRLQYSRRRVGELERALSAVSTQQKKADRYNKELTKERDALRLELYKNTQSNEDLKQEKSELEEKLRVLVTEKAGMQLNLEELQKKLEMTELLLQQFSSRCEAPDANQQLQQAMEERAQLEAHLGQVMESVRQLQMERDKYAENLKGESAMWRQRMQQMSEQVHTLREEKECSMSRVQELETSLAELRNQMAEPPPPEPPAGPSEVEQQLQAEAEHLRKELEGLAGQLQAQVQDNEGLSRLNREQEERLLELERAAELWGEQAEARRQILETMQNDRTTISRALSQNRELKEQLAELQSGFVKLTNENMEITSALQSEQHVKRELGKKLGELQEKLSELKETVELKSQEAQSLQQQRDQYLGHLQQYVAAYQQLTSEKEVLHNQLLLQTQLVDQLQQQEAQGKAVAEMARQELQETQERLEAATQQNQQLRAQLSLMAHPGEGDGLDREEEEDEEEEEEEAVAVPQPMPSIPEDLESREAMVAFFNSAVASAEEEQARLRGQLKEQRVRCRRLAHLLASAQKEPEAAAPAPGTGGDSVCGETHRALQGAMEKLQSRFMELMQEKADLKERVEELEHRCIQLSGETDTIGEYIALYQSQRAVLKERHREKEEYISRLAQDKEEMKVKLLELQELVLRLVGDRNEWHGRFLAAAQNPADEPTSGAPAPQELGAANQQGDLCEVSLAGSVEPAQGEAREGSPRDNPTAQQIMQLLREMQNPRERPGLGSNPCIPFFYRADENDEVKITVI
How it was run: as §1

T2 sequence (Q676U5 whole entry): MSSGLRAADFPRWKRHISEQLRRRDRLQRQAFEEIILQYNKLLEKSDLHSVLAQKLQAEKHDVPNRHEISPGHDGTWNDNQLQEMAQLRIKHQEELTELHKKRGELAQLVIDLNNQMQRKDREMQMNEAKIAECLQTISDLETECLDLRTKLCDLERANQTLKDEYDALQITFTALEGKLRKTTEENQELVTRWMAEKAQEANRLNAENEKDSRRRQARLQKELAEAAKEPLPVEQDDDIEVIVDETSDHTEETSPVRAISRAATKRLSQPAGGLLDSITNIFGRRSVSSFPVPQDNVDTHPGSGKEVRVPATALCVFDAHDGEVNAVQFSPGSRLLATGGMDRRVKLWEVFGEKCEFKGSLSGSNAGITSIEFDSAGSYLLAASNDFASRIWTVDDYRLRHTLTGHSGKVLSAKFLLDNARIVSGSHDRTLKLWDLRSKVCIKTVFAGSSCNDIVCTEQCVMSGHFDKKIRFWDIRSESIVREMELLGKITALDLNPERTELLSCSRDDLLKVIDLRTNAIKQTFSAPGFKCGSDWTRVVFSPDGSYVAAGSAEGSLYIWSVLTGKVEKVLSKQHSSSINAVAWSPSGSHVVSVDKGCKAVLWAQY

SMILES | Liganded ([1]; LGMN Res# 50, uniprot Q99538) | 100 Max [1] | 100 ave [1] | 500 Max [1] | 500 ave [1] | Liganded ([2]; ATG16L1 Res# 145, uniprot Q676U5) | Liganded ([3]; GOLGA2 Res# 794, uniprot Q08379) | 100 Max ([2]; uniprot Q676U5) | 100 ave ([2]; uniprot Q676U5) | 500 Max ([2]; uniprot Q676U5) | 500 ave ([2]; uniprot Q676U5) | 100 Max ([3]; uniprot Q08379) | 100 ave ([3]; uniprot Q08379) | 500 Max ([3]; uniprot Q08379) | 500 ave ([3]; uniprot Q08379)
COc1ccc2c(c1)CCCN2C(=O)CCl [KB02] | YES | 33.6 | 20.31 | 78.38 | 78.38 | YES | YES | – | – | – | – | – | – | – | –
O=C(CCl)Nc1cc(C(F)(F)F)cc(C(F)(F)F)c1 [KBO3] | – | 12.45 | 0.755 | 60.93 | 60.93 | – | – | −47.09 | −47.09 | 18.73 | 18.73 | 1.85 | 1.85 | 54.38 | 54.38
